Source: patent publication US8871900B2, “Fibroblast growth factor (FGF) analogs and uses thereof” (University of Rochester, priority 2008, dated 2014)

Experiments:
[1] = Plasma endotoxin after sub-TBI (tachypleus amebocyte lysate kit); format: in vivo, mouse (Balb/c, C57BL/6); details: Balb/c, 10.5 Gy
Procedure: Some studies have employed bacterial culture of liver samples. Bacterial translocation occurs due to mucosal barrier changes (1) at the level of the basement membrane and (2) bowel mucous volume and composition. The most reliable and most clinically applicable method to measure bacterial translocation is the endotoxin assay. The level of plasma endotoxin 3.5 days post-IR was measured with a commercialized kit that utilized tachypleus amebocyte lysate to sensitively quantitate endotoxin at extremely low levels (<0.01 EU/ml); and 4) body weight (BW): poor nutrition and water absorption will result in reduced body weight. The rate and severity of weight loss, as well as the pace of body weight recovery, will be measured.
2) A standard scoring scale was used to evaluate stool formation (diarrhea). The bowel was extracted from the abdomen and visually inspected. Formed stool was easily distinguished from semi-solid and liquid stool as it passed from the ascending to descending colon. FIGS. 7B and 7C show the irradiated bowel in controls compared with FGF-P-treated Balb/c mice. The FGF-P was given at a dose of 2 mg/kg im for three daily doses beginning 15 min after irradiation. Animals were sacrificed 3.5 days after 10.5 Gy sub-TBI.

[2] = test system: proliferating crypts of small intestine; test: Crypt assay of small intestine after sub-TBI (H&E, BrdU, villi length); format: in vivo, mouse (Balb/c, C57BL/6); details: Balb/c
Description: Enhanced proliferation of crypts in small intestine: The epithelium of the small intestine has a rapid turnover, renewing every 3-7 days. The stem cells are located ⅓ of the way up the […] and active mitosis can be seen above growing into the villus and below, forming the crypt. There are no definitive markers available to identify the stem cells, and thus the number of these cells in each crypt are unknown. When the bowel is irradiated, the number of crypts remains constant up to a dose just below the LD50/7. Above that dose, there is a log-linear decrease in the number of crypts, usually measured at 3.5 days. […] Data from the crypt assay can be augmented with injection of BrdU. BrdU can be given to animals at one or more times after irradiation to determine the rate of proliferation and rate of elongation of villi.
FGF-P was then repeated daily for 2 days. At 80 hr post-IR, BrdU (120 mg/kg) was injected ip and 4 hours later (about 3.5 days post-IR), the mice were sacrificed and the duodenal, jejunal and ileal segments (3-4 pieces/segment) were harvested, fixed in formalin, processed in paraffin blocks, cut in transverse sections of the full segment circumference (5 μm thick) and stained with H&E or anti-BrdU following the standard immunochemistry procedure (23). The proliferating crypts were defined as containing 10 or more adjacent chromophilic non-Paneth cells and a lumen. The circumference of a transverse cross-section of the intestine was used as a unit. The number of proliferating crypts was counted in each circumference. At least 10 circumferences were scored per mouse and 4-5 mice were used to generate each data point.
The villi length of duodenum, jejunum and ileum was measured using a customized Imaging Pro program.

[3] = Stool hemoccult score after sub-TBI; format: in vivo, mouse (Balb/c, C57BL/6); details: Balb/c, 12.5 Gy sub-TBI; FGF-P 2 mg/kg im 15 min post irradiation; Amifostine iv 30 min pre-irradiation; P<0.05
Description: There are commonly employed assays known to be relevant to both mouse and man for determining relative endpoints. These include: 1) stool blood: mucosal barrier breakdown is associated with bleeding of the small bowel; therefore, a hemoccult analysis with a commercial kit (BD Cat #64151) was used in the preliminary data at 3 days after sub-TBI. The time course and frequency of GI bleeding; 2) stool formation: the GI functions of digestion, absorption of nutrition and water, and the regular movement of intestinal muscle are required for formation of normal stool can be measured. All these functions can be upset by radiation. For example, loss of villi leads to decreased fluid absorption and diarrhea. The colon was excised and examined visually for the presence of formed stool at 3.5 days post-IR; 3) endotoximia: bacterial translocation can occur at early times following gastrointestinal radiation exposure.
2) A standard scoring scale was used to evaluate stool formation (diarrhea). The bowel was extracted from the abdomen and visually inspected. Formed stool was easily distinguished from semi-solid and liquid stool as it passed from the ascending to descending colon. FIGS. 7B and 7C show the irradiated bowel in controls compared with FGF-P-treated Balb/c mice. The FGF-P was given at a dose of 2 mg/kg im for three daily doses beginning 15 min after irradiation. […]

MCP-1, IL-6, TNFα = test: Plasma inflammatory molecules after sub-TBI (Luminex bead array); format: in vivo, mouse (Balb/c); details: Balb/c, 12 Gy sub-TBI
Procedure: Bead array technology has been developed to facilitate the study of cytokine expression profiles in normal tissues following radiation. Bead arrays have several advantages over ELISA. First, mice have a limited blood volume (0.3-0.4 ml of plasma/mouse). Each ELISA typically requires approximately 0.1 ml and thus only a limited number of assays are possible. Secondly, the time required to perform ELISAs one by one stresses the system in a large experiment and would be difficult to perform in the field in case of a radiological event. The Luminex bead array technology was used. The paired monoclonal antibodies, the highly-purified protein standards, and the more than 50 different cytokinespecific beads were purchased. In these studies, Balb/c mice received 12 Gy sub-TBI and then im injection of vehicle alone (0.2 ml of saline), FGF-P (2 mg/kg at 10 min post-IR and daily for two days), or Amifostine (200 mg/kg, either 30 min before IR, or 10 min after IR). The samples were collected 3.5 days after IR.
All three of these cytokines are associated with increased severity and progression of radiation-related inflammatory toxicity in mouse and man.

irradiated mice (AGS) = details: cited from earlier work; for dose of peak response: AGS, LD50/7 or crypt assay
[4] = test system: proliferating crypts of small intestine; details: comparison stated for native FGFs; cited from earlier work
Cdc42, Rac1, Mapk10, Cfl = test: Gene expression in irradiated BM cells (Luminex multiplex array); format: cell-based, mouse; details: treatment 20 min after 5 Gy IR, 6 hours, P<0.05
FGF receptor = details: cited from earlier work
[5] = test system: bovine aortic endothelial cells; details: in vitro; cited from earlier work
[6] = in animals; cited from earlier work

Molecule	dose of peak response (irradiated mice (AGS))	crypt survival [4]	binding to FGF receptor (FGF receptor)	downstream signaling (FGF receptor)	cell proliferation and radiation-induced apoptosis [5]	radio-protective effects [6]	further results
NCCCNCCSP(=O)(O)O [Amifostine]							plasma endotoxin level ([1]; Amifostine given after irradiation): 2.87 EU/ml; plasma endotoxin level (mean) ([1]; Amifostine iv 30 min before IR): 0.93 EU/ml; crypt numbers in the ileum ([2]; 12 Gy, Amifostine given after irradiation): no effect when given after irradiation; crypt numbers in the ileum ([2]; 3.5 days after 12 Gy, Amifostine 200 mg/kg iv 30 min before sub-TBI): level of protection matched that obtained for Amifostine; stool hemoccult score [3]: reduced stool hemoccult score; plasma MCP-1, IL-6 and TNFα (MCP-1, IL-6, TNFα; Amifostine 200 mg/kg 10 min after IR): no benefit; plasma MCP-1, IL-6 and TNFα (MCP-1, IL-6, TNFα; Amifostine 200 mg/kg 30 min before IR): beneficial response
FGF-1: acidic fibroblast growth factor, human protein	approximately 6 μg/mouse	approximately doubles crypt survival					
FGF-2: basic fibroblast growth factor, native full length human protein	approximately 6 μg/mouse	approximately doubles crypt survival					dose with benefit (irradiated mice (AGS); human FGF-2 in mice): 1 μg/mouse; expression of Cdc42 (Cdc42, Rac1, Mapk10, Cfl): reversed the IR-suppressed expression; expression of Cfl (cofilin 1) (Cdc42, Rac1, Mapk10, Cfl): suppressed towards normal; expression of Mapk10 (Cdc42, Rac1, Mapk10, Cfl): suppressed towards normal; expression of Rac1 (Cdc42, Rac1, Mapk10, Cfl): reversed the IR-suppressed expression
RFHSWDCIKTWASDTFVLVCYDDGSEA [F2A3, synthetic peptide that mimics FGF-2]			equivalent to native bFGF	as effectively as bFGF	trigger cell proliferation and block radiation-induced apoptosis similar to bFGF	radio-protective effects similar to bFGF	
YRSRKYSSWYVALKR [F2A4, synthetic peptide that mimics FGF-2]			equivalent to native bFGF	as effectively as bFGF	trigger cell proliferation and block radiation-induced apoptosis similar to bFGF	radio-protective effects similar to bFGF	
